“Also recorded” adds a separate entry of the source.
Tests used:
HN5 xenografts = assay: Tumor regrowth delay of HN5 xenografts with radiation; type: in vivo, nu/nu mice; conditions: CHQ 6 hrs and 24 hrs before radiation, with cGNRs; p=0.02
Source text: (§1) FIGS. 5A-5G: Blocking endocytosis steps modulates radiosensitization by cGNRs. […] The radiation dose enhancement factor (DEF) at 10% cell survival was cGNR—1.08, CPZ+cGNR—1.005, BAF-A1+cGNR—1.19, LAC+cGNR—1.16, and CHQ+cGNR—1.20. (B) Intracellular localization cGNR in HN5 cells imaged by TEM 24 hrs after treatment with cGNRs in the presence of (a) PBS, (b) CPZ, (c) BAF-A1, (d) LAC or (e) CHQ for 1 hr. […] (E) Reactive oxygen species measured by CellROX assay kit following treatment of HN5 cells with 2 Gy radiation in the absence or presence of specific inhibitors of internalization with and without cGNRs. […] (F) Elemental gold content of cells analyzed by inductively coupled plasma mass spectrometry.

HN5 cells [1] = assay: γ-H2AX foci formation (DNA damage); type: cell-based; conditions: inhibitor pretreatment, cGNR 24h, 2 Gy (250 kV, 15 mA)
Source text: as §1
Therefore, γ-H2AX was evaluated in HN5 cells pretreated with different pharmacological inhibitors and incubated with cGNR for 24h followed by 2 Gy of radiation (250 kV, 15 mA) (FIG. 5C).

HN5 cells [2] = assay: Intracellular localization of cGNR by TEM; type: cell-based; conditions: TEM 24 hrs after cGNRs, inhibitor for 1 hr
Source text: as §1
(§2) To study the effect of each step of cGNR internalization on radiosensitization, each step of the endocytotic pathway (energy-dependent receptor-mediated endocytosis, early endosomal entrapment, stasis in the late endosomal compartment, and endolysosomal fusion) was blocked using pharmacologic inhibitors in HN5 cells.

HN5 cells [3] = assay: Clonogenic survival with inhibitors of endocytosis steps plus cGNR; type: cell-based; conditions: HN5, 250 kVp; inhibitor pre-treatment 1 hr, then cGNR 24 hr; CPZ 5 μg/ml, BAF-A1 100 nM, LAC 1 μM, CHQ 5 μM
Source text: as §1, §2

HN5 cells [4] = assay: Elemental gold content of cells by ICP-MS; type: cell-based; conditions: 24 h treatment
Source text: as §1

HN5 cells [5] = assay: Reactive oxygen species by CellROX assay kit; type: cell-based; conditions: 2 Gy radiation, with cGNRs, with or without inhibitors
Source text: as §1

HN5 cells [6] = assay: Micronuclei per 1000 binucleated cells; type: cell-based; conditions: cGNRs 24 hrs and radiation, inhibitor pretreatment 1 hr
Source text: as §1
FIG. 10A-10C: Number of micronuclei per 1000 binucleated cells broken down as (A) one, (B) two, or (C) multiple. Cells were treated with cGNRs and radiation in the absence or presence of specific inhibitors of internalization.

Compound	time to tumor volume quadrupling (HN5 xenografts)	γ-H2AX foci / DNA damage (HN5 cells [1])	γ-H2AX foci / DNA damage (HN5 cells [1]; listed as CHQ)	intracellular localization of cGNR (HN5 cells [2])	radiation dose enhancement factor (DEF) at 10% cell survival (HN5 cells [3])	cellular gold content / uptake of cGNR (HN5 cells [4])	cellular gold content / uptake of cGNR (HN5 cells [4]; listed as CHQ)	γ-H2AX foci / DNA damage (HN5 cells [1]; listed as CPZ)	intracellular reactive oxygen species (HN5 cells [5])	micronuclei per 1000 binucleated cells (HN5 cells [6])	micronuclei per 1000 binucleated cells (HN5 cells [6]; listed as LAC)	γ-H2AX foci / DNA damage (HN5 cells [1]; listed as LAC)	intracellular reactive oxygen species (HN5 cells [5]; listed as LAC)	cellular gold content / uptake of cGNR (HN5 cells [4]; listed as LAC)	micronuclei per 1000 binucleated cells (HN5 cells [6]; listed as BAF-A1)	γ-H2AX foci / DNA damage (HN5 cells [1]; listed as BAF-A1)	γ-H2AX foci / DNA damage (HN5 cells [1]; listed as Bafilomycin)	intracellular reactive oxygen species (HN5 cells [5]; listed as BAF-A1)	cellular gold content / uptake of cGNR (HN5 cells [4]; listed as BAF-A1)
CCN(CC)CCCC(C)Nc1ccnc2cc(Cl)ccc12 (stereo not shown) [chloroquine]	statistically significant increase in time to tumor volume quadrupling	further enhanced the DNA damage	increased foci formation	unclustered cGNRs	1.2	no significant differences in the cellular uptake of cGNR	no different	–	–	–	–	–	–	–	–	–	–	–	–
CN(C)CCCN1c2ccccc2Sc2ccc(Cl)cc21 [chlorpromazine]	–	abrogated the effect of cGNR treatment	–	blocked internalization of cGNRs	1.005	significantly (p<0.001) inhibited the cellular uptake of cGNRs	–	not	reduced the intracellular ROS	–	–	–	–	–	–	–	–	–	–
CC(=O)N[C@@H](CSC(=O)[C@]1([C@@H](O)C(C)C)NC(=O)[C@H](C)[C@@H]1O)C(=O)O [lactacystin]	–	further enhanced the DNA damage	–	unclustered cGNRs	1.16	no significant differences in the cellular uptake of cGNR	–	–	further enhanced the intracellular ROS	significantly higher number of MNBC	enhancement in radiosensitization; also recorded: significant increase in radiation-induced micronuclei formation	increased foci formation	even greater enhancement of oxidative stress	no different	–	–	–	–	–
CO/C1=C\C(C)=C\[C@@H](C)[C@@H](O)[C@@H](C)C/C(C)=C/C=C/[C@H](OC)[C@@H]([C@@H](C)[C@@H](O)[C@H](C)[C@@]2(O)C[C@@H](O)[C@H](C)[C@@H](C(C)C)O2)OC1=O [bafilomycin A, bafilomycin A1]	–	greatest increase in DNA damage	–	unclustered cGNRs	1.19	no significant differences in the cellular uptake of cGNR	–	–	further enhanced the intracellular ROS	significantly higher number of MNBC	–	–	–	–	enhancement in radiosensitization; also recorded: significant increase in radiation-induced micronuclei formation	increased foci formation	further enhanced the DNA damage	even greater enhancement of oxidative stress	no different

Source: patent publication US20180250404A1, “HIGH-Z NANOPARTICLES AND THE USE THEREOF IN RADIATION THERAPY” (Board of Regents, The University of Texas System, priority 2015, published 2018)
